Each structure is given as a SMILES string. Converted amounts (≈) assume the structure as drawn.

One data set concerns Bacillus Subtilis PCI219. Description: Minimum growth inhibiting concentration (Table 1). It counts as cell-based. The following applies: TSBI, pH 7.2, 37° C., 48 hours. How it is done: (§1) For information, the minimum growth inhibiting concentration is a value
(§2) concerning microorganisms cultivated in TSBI the pH of which was adjusted
(§3) to 7.2, each bacteria being incubated at 37° C. for 48 hours.

In data set [1] the test system is Diplococcus pneumoniae DP-1. Description: Minimum growth inhibiting concentration (Table 1). The note with it: Streptococcus pneumoniae, DP1, TSBI, pH 7.2, 37° C., 48 hours. The format is cell-based. How it is done: as §1, §2, §3
A further data set deals with Escherichia coli O-55. The data set is described as follows: Minimum growth inhibiting concentration (Table 1). It counts as cell-based. The following applies: O55, TSBI, pH 7.2, 37° C., 48 hours. Here is the method: as §1, §2, §3
Data set [2] relates to Klebsiella pneumoniae ST-101. The data set is described as follows: Minimum growth inhibiting concentration (Table 1). It counts as cell-based. The note with it: ST101, TSBI, pH 7.2, 37° C., 48 hours. How it is done: as §1, §2, §3
The subject of another data set is Proteus vulgaris HX-19. Description: Minimum growth inhibiting concentration (Table 1). It counts as cell-based. The note with it: HX19, TSBI, pH 7.2, 37° C., 48 hours. Here is the method:
as §1, §2, §3

Data set [3] deals with Pseudomonas aeruguinosa 347. Description: Minimum growth inhibiting concentration (Table 1). The following applies: TSBI, pH 7.2, 37° C., 48 hours. It counts as cell-based. How it is done: as §1, §2, §3
In data set [4] the test system is Salmonella enteritidis 1891. The data set is described as follows: Minimum growth inhibiting concentration (Table 1). The format is cell-based. The note with it: Salmonella enterica, TSBI, pH 7.2, 37° C., 48 hours. Here is the method: as §1, §2, §3
Data set [5] deals with Salmonella pullorum chuyu 114. The data set is described as follows: Minimum growth inhibiting concentration (Table 1). It counts as cell-based. The following applies: Salmonella enterica, TSBI, pH 7.2, 37° C., 48 hours. How it is done: as §1, §2, §3
Data set [6] relates to Staphylococcus aureus 209P. Description: Minimum growth inhibiting concentration (Table 1). The format is cell-based. The note with it: TSBI, pH 7.2, 37° C., 48 hours. Here is the method: as §1, §2, §3
Data set [7] concerns Streptococcus hemolyticus A 089. The data set is described as follows: Minimum growth inhibiting concentration (Table 1). It counts as cell-based. The note with it: Streptococcus pyogenes, A089, TSBI, pH 7.2, 37° C., 48 hours. Here is the method: as §1, §2, §3
Data set [8] concerns Staphylococcus aureus 72r. The data set is described as follows: Curative action in infected mice (Table 4). The format is in vivo. The note with it: 168 h, mice infected abdominally, oral in 5% gum arabic, observation one week. How it is done: (§4) Next, in Table 4 are shown the curative actions (ED50 mg/Kg body wt.) and acute toxicities (LD50 mg/kg body wt.) of the typical nitrofuran derivatives of the present invention when used with infected mice.
(§5) Note.- The numerical values in the table denote the amounts per unit body
(§6) weight of the nitrofuran derivatives required for cure when the experimen
(§7) was carried out using mice of body weight of about 20 grams and injecting
(§8) thereinto abdominally the microorganism-containing solutions in amounts o
(§9) 0.2 ml (the microorganism-containing solutions used being those in the
(§10) cases of test microorganisms 1, 3 and 4 in which the microorganism cultur
(§11) liquids were diluted 10^5, 5 and 10^2 times, respectively, and in
(§12) the case of test microorganism 2 that which was concentrated 2 times),
(§13) after which the nitrofuran derivatives suspended in 5% gum arabic were
(§14) forcedly administered orally followed by observation for one week.

The subject of data set [9] is Streptococcus hemolyticus A 089. Description: Curative action in infected mice (Table 4). It counts as in vivo. The note with it: Streptococcus pyogenes, A089, 168 h, mice infected abdominally, oral in 5% gum arabic, observation one week. Here is the method:
as §4, §5, §6, §7, §8, §9, §10, §11, §12, §13, §14

Data set [10] can be described thus: Acute toxicity in mice (Table 4). The following applies: mouse, in vivo, po. Here is the method:
as §4

Another data set has as its system Escherichia coli K-74. Description: Curative action in infected mice (Table 4). The format is in vivo. The note with it: K74, 168 h, mice infected abdominally, oral in 5% gum arabic, observation one week. How it is done:
as §4, §5, §6, §7, §8, §9, §10, §11, §12, §13, §14

For data set [11], the system named is Salmonella typhimium K-52. Description: Curative action in infected mice (Table 4). The format is in vivo. The following applies: K52, 168 h, mice infected abdominally, oral in 5% gum arabic, observation one week. Here is the method: as §4, §5, §6, §7, §8, §9, §10, §11, §12, §13, §14
Another data set relates to infected mice. Description: Curative action in infected mice. The note with it: oral. The format is in vivo. How it is done:
as §5, §6, §7, §8, §9, §10, §11, §12, §13, §14

Data set [12] concerns Streptococcus hemolyticus, Staphylococcus aureus, Escherichia coli and salmonella species. The note with it: cited from earlier work.
The conditions of data set [13]: in vivo; cited from earlier work.
The next data set deals with microorganisms. The following applies: compound (A), background; cited from earlier work.

For the compound `NC(=O)C(CO)NC(=O)c1ccc(C=Cc2ccc([N+](=O)[O-])o2)cc1` (stereo not drawn) [Example 19, Para-[2-(5'-nitro-2'-furyl)-vinyl]-N-benzoylserine amide], the MIC is below 0.19 µg/mL against Bacillus Subtilis PCI219; 0.78 µg/mL (≈ 2.26 µM) in data set [1]; 12.5 µg/mL (≈ 36.2 µM) against Escherichia coli O-55; 6.25 µg/mL (≈ 18.1 µM) in [2]; 6.25 µg/mL (≈ 18.1 µM) in the data set with Proteus vulgaris HX-19; 25 µg/mL (≈ 72.4 µM) in [3]. For the same compound, the minimal inhibitory concentration (MIC) in [4] was 1.56 µg/mL (≈ 4.52 µM); in data set [5], 6.25 µg/mL (≈ 18.1 µM); in data set [6] it was 1.56 µg/mL (≈ 4.52 µM); in data set [7], below 0.19 µg/mL. Also, the ED50 in [8] is 65 mg/kg; in [9], 46 mg/kg. The compound further had an LD50 in [10] above 2000 mg/kg.

As for `NC(=O)c1ccc(C=Cc2ccc([N+](=O)[O-])o2)cc1` [Compound A, Para-[2-(5'-nitro-2'-furyl)-vinyl]-benzoylamine, reference compound], the ED50 (in the data set on Escherichia coli K-74; in data set [11]; in data set [8]; in [9]) was above 400 mg/kg throughout. Also, in data set [10], the LD50 is above 400 mg/kg. In addition, the “Curative effect in infected mice (in words)” value in the data set with infected mice is “no curative effects were noted”. The “Antimicrobial activity in vitro (in words)” value in data set [12] is “extremely superior antimicrobial activity in vitro”. Besides, the “Concentration inhibiting the growth” value in data set [12] (in vitro, Streptococcus hemolyticus, Staphylococcus aureus, Escherichia coli and salmonella species) is on record as 0.1-3 micrograms per milliliter. Further, the Concentration in blood entry in data set [13] is “can scarcely be noted”. The “In vivo antimicrobial activity” value in the data set with microorganisms is recorded as “not observed”.

Consider `CC(O)CNC(=O)c1ccc(C=Cc2ccc([N+](=O)[O-])o2)cc1` (stereo not drawn) [Example 5, 3-Para[2'-(5"-nitro-2"-furyl)-vinyl]-benzoylamino-2-propanol], for which the MIC with Bacillus Subtilis PCI219 is below 0.19 µg/mL; in [1] it was 0.78 µg/mL (≈ 2.47 µM); in the data set with Escherichia coli O-55, 6.25 µg/mL (≈ 19.8 µM); in [2], 3.13 µg/mL (≈ 9.9 µM); in the data set on Proteus vulgaris HX-19, 3.13 µg/mL (≈ 9.9 µM); in [3] it was above 25 µg/mL. Also, the MIC in data set [4] was determined as 1.56 µg/mL (≈ 4.93 µM); in data set [5] it was 6.25 µg/mL (≈ 19.8 µM); in data set [6], 0.78 µg/mL (≈ 2.47 µM); in data set [7], 0.19 µg/mL (≈ 0.601 µM). In addition, the ED50 in data set [11] turned out to be 110 mg/kg; in data set [8], 37 mg/kg; in data set [9], 19 mg/kg. The compound further gave an LD50 in data set [10] of 1700 mg/kg.

In the case of `O=C(NCCO)c1cccc(C=Cc2ccc([N+](=O)[O-])o2)c1` [Example 2, 2-Meta-[2'-(5"-nitro-2"-furyl)-vinyl]-benzoylamino-ethanol], the minimum inhibitory concentration (MIC) in the data set on Bacillus Subtilis PCI219 was below 0.19 µg/mL; in data set [1], below 0.19 µg/mL; against Escherichia coli O-55, 3.13 µg/mL (≈ 10.4 µM); in [2], 1.56 µg/mL (≈ 5.16 µM); against Proteus vulgaris HX-19, 6.25 µg/mL (≈ 20.7 µM); in data set [3], 25 µg/mL (≈ 82.7 µM). Besides, the MIC in data set [4] is 0.78 µg/mL (≈ 2.58 µM); in [5], 3.13 µg/mL (≈ 10.4 µM); in data set [6], 0.78 µg/mL (≈ 2.58 µM); in data set [7] it was below 0.19 µg/mL. Besides, the ED50 was 45 mg/kg in the data set on Escherichia coli K-74, 150 mg/kg in [11], 37 mg/kg in data set [8] and 34 mg/kg in data set [9]. The LD50 in [10] was 2000 mg/kg.

On to `NC(=O)CNC(=O)c1ccc(C=Cc2ccc([N+](=O)[O-])o2)cc1` [Example 16, Para-[2-(5'-nitro-2'-furyl)-vinyl]-N-benzoylglycine amide], for which the MIC is below 0.19 µg/mL in the data set with Bacillus Subtilis PCI219; 0.39 µg/mL (≈ 1.24 µM) in data set [1]; 3.13 µg/mL (≈ 9.93 µM) against Escherichia coli O-55; 3.13 µg/mL (≈ 9.93 µM) in data set [2]; 3.13 µg/mL (≈ 9.93 µM) with Proteus vulgaris HX-19; above 25 µg/mL in data set [3]. Moreover, the MIC in data set [4] was 0.78 µg/mL (≈ 2.47 µM); in data set [5], 3.13 µg/mL (≈ 9.93 µM); in [6], 0.78 µg/mL (≈ 2.47 µM); in data set [7], below 0.19 µg/mL. Further, the ED50 in the data set with Escherichia coli K-74 worked out at 34 mg/kg; in data set [11] it was 110 mg/kg; in data set [8], 30 mg/kg; in data set [9], 34 mg/kg. Also, the LD50 in [10] is 2000 mg/kg.

As for `O=C(NCCOCCO)c1ccc(C=Cc2ccc([N+](=O)[O-])o2)cc1` [Example 11, 2-Para-[2'-(5"-nitro-2"-furyl)-vinyl]-benzoylaminoethoxy-2-ethanol], the MIC is below 0.19 µg/mL in the data set on Bacillus Subtilis PCI219; 0.78 µg/mL (≈ 2.25 µM) in [1]; 6.25 µg/mL (≈ 18 µM) against Escherichia coli O-55; 3.13 µg/mL (≈ 9.04 µM) in data set [2]; 6.25 µg/mL (≈ 18 µM) in the data set with Proteus vulgaris HX-19; 25 µg/mL (≈ 72.2 µM) in data set [3]. Moreover, the MIC in [4] is 1.56 µg/mL (≈ 4.5 µM); in [5], 6.25 µg/mL (≈ 18 µM); in data set [6], 1.56 µg/mL (≈ 4.5 µM); in [7], below 0.19 µg/mL. The ED50 amounted to 29 mg/kg in the data set with Escherichia coli K-74, 100 mg/kg in data set [11], 21 mg/kg in data set [8] and 13 mg/kg in data set [9]. In data set [10], this compound gave an LD50 of 1850 mg/kg.

Consider `O=C(NCCCO)c1ccc(C=Cc2ccc([N+](=O)[O-])o2)cc1` [Example 4, 3-Para-[2'-(5"-nitro-2"-furyl)-vinyl]-benzoylamino-1-propanol], for which the MIC with Bacillus Subtilis PCI219 is below 0.19 µg/mL; in data set [1], 6.25 µg/mL (≈ 19.8 µM); in the data set with Escherichia coli O-55, 3.13 µg/mL (≈ 9.9 µM); in data set [2] it was 3.13 µg/mL (≈ 9.9 µM); with Proteus vulgaris HX-19 it was 6.25 µg/mL (≈ 19.8 µM); in data set [3], above 25 µg/mL. Also, the MIC in data set [4] was 3.13 µg/mL (≈ 9.9 µM); in data set [5] it was 6.25 µg/mL (≈ 19.8 µM); in data set [6] it was 0.78 µg/mL (≈ 2.47 µM); in data set [7] it was below 0.19 µg/mL. In addition, the ED50 in [11] worked out at 125 mg/kg; in data set [8] it was 50 mg/kg; in data set [9] it was 24 mg/kg. Also, in data set [10], the LD50 was found to be 1900 mg/kg.

Source of the values: patent publication US3994882A, “Nitrofuran derivatives, process for the preparation thereof and compositions containing same as active ingredient” (Kabushiki Kaisha Ueno Seiyaku Oyo Kenkyujo, priority 1974, dated 1976).
